This test has as its system cultured rat pituitary cells. Kind of test: in vitro inhibition of growth hormone secretion by cultured rat pituitary cells (radioimmunoassay). Format: cell-based. Particulars: three hours at 37° C in Eagles medium, control 441±12. As to the method: The activity of the undecapeptide of this invention was established in both in vitro and in vivo testing procedures, employing modifications of the techniques disclosed by Penso et al., Tissue Culture in Biological Research, Elsevier, 1963, p. 98; Berson et al., Metabolism, 13, 1135(1964).
The in vitro tests were conducted by covering cultured rat pituitary cells contained in petri dishes with five milliliter portions of the undecapeptide, as its diacetate salt, in Eagles medium for three hours at 37° C. Three Petri dishes were employed for each solution concentration. The amount of growth hormone produced by the cultured pituitary cells is then compared with growth hormone produced by non-treated cells prepared in identical manner, via growth hormone radioimmunoassay. The difference between the growth hormone produced by treated and non-treated pituitary cells establishes the amount of inhibition by the compound under study.
The cultured pituitary cells are prepared by excising and mincing rat pituitary glands followed by enzymatic separation of the cells (collagenase and hyaluronidase) and culture on synthetic nutrient media. When the cells attach themselves to the bottom of the plastic petri dish and cover the nutrient surface, they are washed with Eagles medium containing only inorganic salts, glucose and antibiotics in which state they are ready for use as above described.
The activity of the undecapeptide of this invention was compared in vitro with somatostatin with the following results in which the concentration valves given are in nanograms/milliliter: […]

For the compound `C[C@H](N)C(=O)NCC(=O)N[C@H]1CSSC[C@@H](C(=O)O)NC(=O)[C@H](CO)NC(=O)[C@H]([C@@H](C)O)NC(=O)[C@H](Cc2ccccc2)NC(=O)[C@H]([C@@H](C)O)NC(=O)[C@H](CCCCN)NC(=O)[C@H](Cc2c[nH]c3ccccc23)NC(=O)[C@H](Cc2ccccc2)NC(=O)[C@H](Cc2ccccc2)NC(=O)[C@H](CC(N)=O)NC(=O)[C@H](CCCCN)NC1=O` [somatostatin], the “Growth Hormone Secreted” value was found to be 260 ± 8 ng/mL (compound concentration 10 ng/ml), 271 ± 22 ng/mL (compound concentration 50 ng/ml) and 250 ± 13 ng/mL (compound concentration 100 ng/ml).

The values are drawn from US4113714A, “[Des-Ala^1, Gly^2 -desamino-Cys^3 ]somatostatin” (American Home Products Corporation, priority 1975, dated 1978).
